The source of these data is ChEMBL document CHEMBL1159308, “A new triterpene saponin from Pittosporum viridiflorum from the Madagascar rainforest” (J Nat Prod, 2002).

One may read the IC50 as the concentration that gives 50% inhibition. Lower therefore signals greater potency in that assay.

In brackets after ≈: the same amount, converted by molar mass.

In test [1] the test system is Saccharomyces cerevisiae. Kind of test: DNA damaging activity against yeast Sc7 mutant assessed as drug level required to produce 12 mm zone of inhibition. The format is functional.
In test [2] the test system is Saccharomyces cerevisiae. Kind of test: DNA damaging activity against yeast 1138 mutant assessed as drug level required to produce 12 mm zone of inhibition. The format is functional.
For test [3], the system named is Saccharomyces cerevisiae. Kind of test: DNA damaging activity against yeast 1353 mutant assessed as drug level required to produce 12 mm zone of inhibition. The format is functional.
In test [4] the test system is Saccharomyces cerevisiae. Kind of test: DNA damaging activity against yeast 1140 mutant assessed as drug level required to produce 12 mm zone of inhibition. The format is functional.
The subject of test [5] is A2780. The test is described as follows: Cytotoxicity against human A2780 cells. The format is functional, cell-based.

For `C/C=C(/C)C(=O)O[C@H]1[C@H](OC(=O)C=C(C)C)[C@@]2(CO)[C@H](CC1(C)C)C1=CC[C@@H]3[C@@]4(C)CC[C@H](O[C@@H]5O[C@H](C(=O)O)[C@@H](O[C@H]6O[C@H](CO)[C@@H](O)[C@@H]6O)[C@H](O[C@H]6OC[C@@H](O)[C@@H](O)[C@@H]6O)[C@H]5O[C@@H]5O[C@H](CO)[C@@H](O)[C@H](O)[C@H]5O)C(C)(C)[C@@H]4CC[C@@]3(C)[C@]1(C)[C@@H](O)[C@H]2O` [PITTOVIRIDOSIDE], the IC12 is 100 µg/mL in test [1], 85 µg/mL in test [2], 140 µg/mL in test [3] and 80 µg/mL in test [4]. In test [5], the IC50 was found to be 10.1 µg/mL (≈ 7.93 µM).
